Experiments:
[1] = In vivo release kinetics from dual drug reservoir stent, porcine coronary artery model; conditions: at thirty (30) days, 3.5×17 mm reservoir stent, PLGA75/25, in vivo (FIG. 18)
Description: FIG. 18 graphically illustrates the release kinetic curves for sirolimus 1902 and cilostazol 1904 over a period of thirty (30) days from an in vivo release kinetics study. As illustrated, the release kinetics are similar for both drugs with approximately seventy (70) percent of both drugs being released from the stent at thirty (30) days (sirolimus being a little higher than the cilostazol). A 3.5×17 mm stent with reservoirs was utilized in the study. Each drug was placed individually in a reservoir to create an alternating pattern. The basic construct of each reservoir fill was a base (luminal side of the stent) comprising only polymer (PLGA75/25) and no drug, a drug matrix either comprising 120.4 micro grams of cilostazol and 197.1 micro grams of polymer (PLGA75/25) or 146.9 micro grams of sirolimus and 175.0 micro grams of polymer (PLGA75/25), and a cap comprising only polymer (PLGA75/25). The stent was placed in a standard porcine coronary artery model to evaluate the in vivo release kinetics and tissue concentration of both drugs released from the stent over time.

[2] = Porcine drug elution PK study of dual drug eluting coating (in vivo release); set-up: species or system pig; conditions: after eight (8) days of implantation, single layer configuration of FIG. 15 (FIG. 13)
Description: Another critical parameter for the performance of the thrombus resistance of a device coated with cilostazol is the duration of the drug release from the coating. This is of particular significance in the two weeks after device implantation. In the porcine drug elution PK studies of the dual drug eluting coating, both cilostazol and sirolimus were slowly released from the coating, resulting in a sustained drug release profile. The purpose of the porcine PK study is to assess the local pharmacokinetics of a drug eluting stent at a given implantation time. Normally three stents are implanted in three different coronary arteries in a pig for a given time point and then retrieved for total drug recovery analysis. The stents are retrieved at predetermined time points; namely, 1, 3 and 8 days. The stents are extracted and the total amount of drug remaining on the stents is determined by analysis utilizing HPLC (high performance liquid chromatography) for total drug amount. The difference between the original amount of drug on the stent and the amount of drug retrieved at a given time represents the amount of drug released in that period. The continuous release of drug into surrounding arterial tissue is what prevents the neointimal growth and restenosis in the coronary artery. A normal plot represents the percentage of total drug released (%, y-axis) vs. time of implantation (day, x-axis). […]

[3] = system: platelet deposition and thrombus formation on the stent surface; assay: In vitro bovine blood loop model (anti-thrombotic activity); conditions: FIG. 12, cilostazol in sirolimus/cilostazol coatings
Description: The anti-thrombotic efficacy of the above-described three configurations is illustrated in FIG. 12. FIG. 12 illustrates the anti-thrombotic properties of the sirolimus/cilostazol combination coatings described above in an in vitro bovine blood loop model. In the in vitro bovine blood loop model, fresh bovine blood is heparinized to adjust for acute clotting time (ACT) of about two hundred (200) seconds. The platelet content in the blood is labeled through the use of Indium 111. In the study, a stent is deployed in a silicone tube, which is part of a closed loop system for blood circulation. The heparinzed blood is circulated through the closed loop system by means of a circulating pump. Activated platelets, fibrin and thrombus builds up on a stent surface over time and reduces the flow rate of blood through the stented loop. The flow is stopped when the flow rate is reduced to fifty (50) percent of the starting value or at ninety (90) minutes if none of the tested stent reduces the flow by fifty (50) percent. The total radioactivity (In 111) on the stent surface is counted by a […] and normalized with the control unit, set as one hundred (100) percent in the chart. […]

[4] = cited from earlier work
[5] = In vitro release kinetics of sirolimus/cilostazol stent coatings; assay type: physicochemical

SMILES	drug released from the stent [1] [%]	drug remained in the drug coating [2] [%]	thrombus formation [3]	solubility in water [4]	drug release rate, 200 µg vs 100 µg BMA diffusion overcoat ([5]; configuration of FIG. 7 (200 µg BMA) compared with FIG. 9 (100 µg BMA), FIGS. 8 and 10)	in vitro release rate compared to the dual drug base coating ([5]; configuration of FIG. 7 vs FIG. 15)	in vitro release ([5]; single layer configuration of FIG. 15 (FIG. 14)) [%]
O=C1CCc2cc(OCCCCc3nnnn3C3CCCCC3)ccc2N1 [cilostazol, 6[4-(1-cyclohexyl-1H-tetrazol-5-yl)-butoxy]-3,4-dihydro-2-(1H)-quinolinone]	~70	~80	significantly reduces thrombus formation	relatively low solubility in water	comparatively slower	much faster rate	~35
CO[C@H]1C[C@@H]2CC[C@@H](C)[C@@](O)(O2)C(=O)C(=O)N2CCCC[C@H]2C(=O)O[C@H]([C@H](C)C[C@@H]2CC[C@@H](O)[C@H](OC)C2)CC(=O)[C@H](C)/C=C(\C)[C@@H](O)[C@@H](OC)C(=O)[C@H](C)C[C@H](C)/C=C/C=C/C=C/1C [sirolimus]	~70	~80					
